# Data reported in patent publication US20260250318A1, “COMPOSITIONS AND METHODS FOR CROSSING THE BLOOD BRAIN BARRIER” (VOYAGER THERAPEUTICS, INC., priority 2022, published 2026).
# Experiments:
# Details in all cases: synthetic library passage 3, intravenous, relative to wild-type AAV9
# [1] = tested on: brain, spinal cord, and DRG of the NHPs; test: NGS fold enrichment of synthetic library (passage 3) in NHPs, first cross-species screen; format: in vivo, cynomolgus macaques (Macaca fascicularis)
# Method in brief: (§1)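 Fold enrichment versus wild-type AAV9 was derived by NGS of RT-PCR-amplified RNA from nervous tissue, collected e.g. 28 days after IV dosing […]. The library (passage 3) was given to two NHPs aged 2-4 years and to 6-8-week BALB/c and C57Bl/6 mice (n=3 each).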
# brain [2] = test: NGS fold enrichment of synthetic library (passage 3) in BALB/c mice, first cross-species screen; format: in vivo
# Method in brief: as §1
# brain [3] = test: NGS fold enrichment of synthetic library (passage 3) in C57Bl/6 mice, first cross-species screen; format: in vivo
# Method in brief: as §1
# [4] = RNA from spinal cord of NHPs, NGS
# [5] = RNA from brain of BALB/c mice, NGS
# [6] = RNA from brain of C57Bl/6 mice, NGS
Sequence,"Fold enrichment over AAV9 in the brain of NHPs ([1]; RNA NGS, brain of NHPs) [fold]","Fold enrichment over AAV9 in the spinal cord of NHPs ([1]; RNA NGS, spinal cord of NHPs) [fold]","Fold enrichment over AAV9 in the brain of Mice (BALB/c) (brain [2]; RNA NGS, brain of BALB/c mice) [fold]","Fold enrichment over AAV9 in the brain of Mice (C57Bl/6) (brain [3]; RNA NGS, brain of C57Bl/6 mice) [fold]","Fold enrichment over AAV9 in the brain of NHPs ([1]; RNA from brain of NHPs, NGS) [fold]","Fold enrichment over AAV9 in the spinal cord of NHPs [1, 4] [fold]",Fold enrichment over AAV9 in the brain of Mice (BALB/c) (brain [2]; [5]) [fold],Fold enrichment over AAV9 in the brain of Mice (C57Bl/6) (brain [3]; [6]) [fold]
GSGQNHGVLSNQQT,2.254,1.603,0.701,1.113,,,,
GSGQNHRPSVLQQT,1.983,5.582,0.582,0.433,,,,
GSGQNHRSADMQQT,1.084,12.001,0.212,0.417,,,,
GSGQNIGHSLPQQT,,,,,1.264,6.183,0.478,0.740
GSGQNKDHSTRRQT,,,,,1.197,0.000,0.477,0.384
GSGQNKQMLSGNTT,,,,,1.410,2.219,0.404,1.074
GSGQNLAGRMDQQT,1.864,0.085,0.295,0.362,,,,
GSGQNLGLLGAQQT,,,,,1.161,1.458,0.226,0.524
GSGQNLHSGLPQQT,,,,,1.363,1.594,0.592,1.054
GSGQNPIRGAMQQT,,,,,1.126,1.327,0.427,1.296
GSGQNPSFMRGQQT,,,,,1.252,1.454,1.094,1.293
GSGQNQAGHGPGQT,1.670,2.861,0.887,1.040,,,,
GSGQNQALVSMGQT,,,,,1.255,1.876,0.560,0.987
GSGQNQAMTHGDQT,,,,,1.257,1.878,0.259,0.357
GSGQNQANWVKVQT,1.059,0.126,0.532,0.683,,,,
GSGQNQAVHNKSQT,1.956,3.791,1.083,1.465,,,,
GSGQNQDHQNKQQT,,,,,1.308,1.470,0.761,0.510
GSGQNQGLLSSPQT,,,,,1.164,0.000,0.417,0.707
GSGQNQGRAHPMQT,1.007,2.364,0.453,0.684,,,,
GSGQNQGTVYPNQT,,,,,1.358,7.648,0.815,0.835

Sequence,"Fold enrichment over AAV9 in the brain of NHPs ([1]; RNA NGS, brain of NHPs) [fold]","Fold enrichment over AAV9 in the spinal cord of NHPs ([1]; RNA NGS, spinal cord of NHPs) [fold]","Fold enrichment over AAV9 in the brain of Mice (BALB/c) (brain [2]; RNA NGS, brain of BALB/c mice) [fold]","Fold enrichment over AAV9 in the brain of Mice (C57Bl/6) (brain [3]; RNA NGS, brain of C57Bl/6 mice) [fold]","Fold enrichment over AAV9 in the brain of NHPs ([1]; RNA from brain of NHPs, NGS) [fold]","Fold enrichment over AAV9 in the spinal cord of NHPs [1, 4] [fold]",Fold enrichment over AAV9 in the brain of Mice (BALB/c) (brain [2]; [5]) [fold],Fold enrichment over AAV9 in the brain of Mice (C57Bl/6) (brain [3]; [6]) [fold]
GSGQNQHHSVSQQT,1.623,3.700,0.334,0.605,,,,
GSGQNQHLSSFVQT,1.013,0.110,0.364,1.090,,,,
GSGQNQHSAPFNQT,1.969,0.499,0.870,0.759,,,,
GSGQNQHSAPNSQT,2.134,4.143,0.731,1.187,,,,
GSGQNQHSLGNYQT,2.143,1.896,0.606,1.077,,,,
GSGQNQHSLPAHRT,,,,,1.361,0.700,0.742,0.911
GSGQNQHSVHNDQT,1.428,0.000,0.515,0.521,,,,
GSGQNQHSVQVRQT,1.116,1.909,0.916,0.782,,,,
GSGQNQHYSLHKQT,1.563,3.399,1.273,1.485,,,,
GSGQNQKGMQPNQT,,,,,1.326,3.139,1.059,0.775
GSGQNQKILTLDQT,1.080,0.371,0.314,0.291,,,,
GSGQNQQALGSQRT,1.695,1.934,0.562,1.419,,,,
GSGQNQQALHNPHT,1.553,0.664,0.213,0.638,,,,
GSGQNQQAPHKKET,,,,,1.180,0.598,0.689,0.994
GSGQNQQARPLELT,1.061,0.059,0.252,0.389,,,,
GSGQNQQASGRQQT,1.458,3.179,0.991,0.943,,,,
GSGQNQQASLAMRT,1.910,3.577,1.638,2.066,,,,
GSGQNQQASLPSRT,1.456,0.389,0.673,0.930,,,,
GSGQNQQGTGVSHT,,,,,1.371,4.295,0.749,1.417
GSGQNQQGTLLHQT,1.728,2.065,1.303,1.347,,,,
